According to publication PMC12118597 (Science Advances, 2025):
Values joined by “and” are separate entries in the source; they are usually repeats but may differ in a detail not shown here. Equal values may be shown once. Read-outs that look alike come from different tables or passages of the source.

Target: SARS-CoV-2 NSP3 macrodomain (Mac1) (Severe acute respiratory syndrome coronavirus 2, UniProt P0DTD1)
Assay type: binding
Settings: for 1-BDC: PanDDA background density correction factor; for X-ray crystal structure: TRUE = crystal structure with ligand obtained; for PanDDA run, overall: Hit / PanDDA run, overall: Modeled: P43 crystal form; for Total number of conformations: ligand conformations modeled in the crystal structure; for 2*(1-BDC) (%): occupancy estimate from PanDDA; for Refined ligand occupancy (%): refined crystallographic occupancy
[1] = site of Mac1 occupied in the X-ray crystal structure
[2] = site of ligand in X-ray crystal structure

| SMILES | Occupancy difference (refined_occupancy - 2*(1-BDC)) | 1-BDC | X-ray crystal structure | PanDDA run, overall: Hit (crystal soak 5 mM) | PanDDA run, DMSO background map: 1-BDC (crystal soak 5 mM) | PanDDA run, DMSO background map: Hit (crystal soak 5 mM) | Total number of conformations | 2*(1-BDC) (%) | Refined ligand occupancy (%) | Binding site [1] | PanDDA run, overall: Modeling comment (crystal soak 10 mM) | PanDDA run, overall: Hit (crystal soak 10 mM) | PanDDA run, DMSO background map: 1-BDC (crystal soak 10 mM) | PanDDA run, DMSO background map: Hit (crystal soak 10 mM) | PanDDA run, overall: Modeling comment (crystal soak 5 mM) | Binding site [2] | PanDDA run, overall: Modeled (crystal soak 10 mM) |
| --- | --- | --- | --- | --- | --- | --- | --- | --- | --- | --- | --- | --- | --- | --- | --- | --- | --- |
| CCC1(O)CCN(c2ncnc3[nH]ccc23)C1 (stereo not drawn) [AVI-612] | 0 | 0.17 | TRUE | TRUE | 0.17 | TRUE | 1 | 34 | 34 | Adenosine | – | – | – | – | – | – | – |
| CN(C)C[C@@]1(O)CCCN(c2ncnc3[nH]ccc23)C1 [AVI-614] | – | – | – | – | – | – | – | – | – | – | Weak density, not modeled | TRUE | 0.17 | TRUE | – | – | – |
| O[C@@H]1CN(c2ncnc3[nH]ccc23)C[C@H]1F [AVI-616] | 0 | 0.2 | TRUE | – | – | – | 1 | 40 | 40 | Adenosine | – | TRUE | 0.2 | TRUE | – | – | – |
| O[C@@H]1COC[C@H]1Nc1ncnc2[nH]ccc12 [AVI-1443] | – | – | – | TRUE | 0.05 and 0.04 | TRUE | – | – | – | – | – | – | – | – | Weak density, not modeled | – | – |
| O[C@H]1COC[C@@H]1Nc1ncnc2[nH]ccc12 [AVI-1444, (3R,4S)-4-((7H-pyrrolo[2,3-d]pyrimidin-4-yl)amino)tetrahydrofuran-3-ol] | 0 | 0.08 | TRUE | – | – | – | 1 | 16 | 16 | – | – | TRUE | 0.08 and 0.11 | TRUE | – | Adenosine | – |
| O=C(O)C(F)(F)F.OC1c2ccccc2CC1Nc1ncnc2[nH]ccc12 (stereo not drawn) [AVI-3634] | – | – | – | – | – | – | – | – | – | – | TFA only | – | – | – | – | – | – |
| CCC(Nc1ncnc2[nH]ccc12)C(C)O (stereo not drawn) [AVI-3635] | 0 | 0.14 | TRUE | – | – | – | 2 | 28 | 28 | – | – | TRUE | 0.23 and 0.14 | TRUE | – | Adenosine | TRUE |
| OCC(CC(F)(F)F)Nc1ncnc2[nH]ccc12 (stereo not drawn) [AVI-3637] | 0 | 0.23 | TRUE | – | – | – | 1 | 46 | 46 | – | – | TRUE | 0.23 | TRUE | – | Adenosine | – |
| OCC(Nc1ncnc2[nH]ccc12)C1CCC1 (stereo not drawn) [AVI-3638] | 0 | 0.13 | TRUE | – | – | – | 1 | 26 | 26 | – | – | TRUE | 0.13 | TRUE | – | Adenosine | TRUE |
| O=C(O)C(F)(F)F.O[C@H]1CCC[C@@H]1Nc1ncnc2[nH]ccc12 [AVI-3639] | 0 | 0.11 | TRUE | – | – | – | 1 | 22 | 22 | – | – | TRUE | 0.11 | TRUE | – | Adenosine | TRUE |
| OCC(CC1CCC1)Nc1ncnc2[nH]ccc12 (stereo not drawn) [AVI-3641] | 0 | 0.18 | TRUE | – | – | – | 1 | 36 | 36 | – | – | TRUE | 0.18 | TRUE | – | Adenosine | TRUE |
